SMILES strings stand for the structures. Where two headings read alike, the source gives them in different places.

In one assay the target is T1, 5HT2B receptors (Homo sapiens, UniProt P41595).
T1 construct: expressed in transfected cells; host or cells: CHO-K1 cells
As to the kind of experiment: Human 5-HT2B functional high throughput screening assay in CHO-K1 cells (calcium flux). In kind it is cell-based. Conditions: for EC50: CHO-K1 cells, calcium flux; call rule not given here. Summed up: (§1)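 CHO-K1 cells overexpressing human 5-HT2C or 5-HT2B were serum-starved overnight and loaded with Ca4 dye plus 2.5 mM probenecid for 60 min at RT. Calcium flux was read on FLIPR (ex 480/em 530 nm, 25° C) over 3 min after addition of compound, tested from 10 μM in 1:10 steps over 6 points with 0.2% DMSO. EC50 and Emax relative to serotonin came from a 4-parameter logistic fit.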
In general terms: A change in cytosolic calcium serves as a functional read-out for many receptors and channels.

In another assay the target is T2, 5HT2C receptors (Homo sapiens, UniProt P28335).
T2 sequence (P28335 33-458): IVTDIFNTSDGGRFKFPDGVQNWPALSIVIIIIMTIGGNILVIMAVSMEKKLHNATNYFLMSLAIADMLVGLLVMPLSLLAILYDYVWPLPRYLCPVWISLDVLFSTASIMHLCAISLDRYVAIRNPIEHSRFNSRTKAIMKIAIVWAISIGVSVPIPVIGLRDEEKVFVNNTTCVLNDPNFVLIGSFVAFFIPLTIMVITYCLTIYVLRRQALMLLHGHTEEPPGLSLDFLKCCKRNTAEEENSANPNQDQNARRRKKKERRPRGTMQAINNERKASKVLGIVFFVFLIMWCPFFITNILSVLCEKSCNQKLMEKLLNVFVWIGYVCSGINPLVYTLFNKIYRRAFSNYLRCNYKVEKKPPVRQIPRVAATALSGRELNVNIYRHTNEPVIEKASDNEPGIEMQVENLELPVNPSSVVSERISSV
The experiment in a line: Human 5-HT2C functional high throughput screening assay in CHO-K1 cells (calcium flux). In kind it is cell-based. The arrangement: expressed in transfected cells; host or cells: CHO-K1 cells. Conditions: for Emax: CHO-K1, 5-HT2C, maximum functional response as percentage relative to the effect of serotonin; for EC50: CHO-K1 cells, calcium flux. Summed up:
as §1

Setting [1] is: 5-HT2B, maximum functional response as percentage relative to the effect of serotonin.
[2] abbreviates: 5-HT2B agonist activity, read-out: EC50.
The mark [3] stands for this setting: 5-HT2C agonist activity, read-out: EC50.

T1 sequence (P41595 whole entry): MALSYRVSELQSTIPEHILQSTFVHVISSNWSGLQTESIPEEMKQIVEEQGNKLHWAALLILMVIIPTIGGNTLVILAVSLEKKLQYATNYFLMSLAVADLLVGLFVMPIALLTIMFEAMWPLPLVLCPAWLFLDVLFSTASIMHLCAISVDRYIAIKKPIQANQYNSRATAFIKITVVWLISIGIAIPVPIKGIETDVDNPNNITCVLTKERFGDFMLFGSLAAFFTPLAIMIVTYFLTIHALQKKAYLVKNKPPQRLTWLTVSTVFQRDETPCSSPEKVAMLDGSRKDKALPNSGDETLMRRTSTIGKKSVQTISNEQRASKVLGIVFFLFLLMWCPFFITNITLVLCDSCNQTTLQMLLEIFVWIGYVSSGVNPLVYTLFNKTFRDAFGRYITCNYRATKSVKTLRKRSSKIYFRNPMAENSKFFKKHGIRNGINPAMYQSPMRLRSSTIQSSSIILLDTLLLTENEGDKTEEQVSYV

With `CC(C)CCOc1ccc2c(c1)C(=O)NC[C@@H]1CNC[C@@H]21` (relative stereo) [Example 169, Trans-8-(isopentyloxy)-1,2,3,3a,4,5-hexahydrobenzo[e]pyrrolo[3,4-c]azepin-6(10bH)-one], the figures for the maximal response (Emax) result on 5HT2B receptors (setting [1]) and on 5HT2C receptors were “inactive” and greater than 120%, respectively. In addition, the EC50 (in general, the concentration at which the effect is half-maximal) was greater than 10 µM on 5HT2B receptors (EC50, 5-HT2B agonist activity) and 1 nM on 5HT2C receptors (EC50, 5-HT2C agonist activity).

As to `CN1C[C@H]2CNC(=O)c3cc(C4CCCC4)ccc3[C@@H]2C1` (relative stereo) [Example 205, Trans-8-cyclopentyl-2-methyl-1,2,3,3a,4,5-hexahydrobenzo[e]pyrrolo[3,4-c]azepin-6(10bH)-one], the concentration for a half-maximal effect (EC50) on 5HT2B receptors (setting [2]) was greater than 10 µM; on 5HT2C receptors (setting [3]) it was 300 nM. Besides, the values for the Emax result on 5HT2B receptors (setting [1]) and on 5HT2C receptors were “inactive” and 90%, respectively.

Regarding `CN1C[C@H]2CN(C)C(=O)c3cc(-c4cccc(CCO)c4)ccc3[C@@H]2C1` (relative stereo) [Example 192, Trans-8-(3-(2-hydroxyethyl)phenyl)-2,5-dimethyl-1,2,3,3a,4,5-hexahydrobenzo[e]pyrrolo[3,4-c]azepin-6(10bH)-one], the EC50 at 5HT2B receptors (setting [2]) was greater than 10 µM; on 5HT2C receptors (setting [3]) it was 8 nM. Further, the Emax (usually the size of the effect at its maximum, as opposed to the concentration needed) at 5HT2B receptors (setting [1]) was “inactive”; on 5HT2C receptors (read-out: Emax), 120%.

For `CC(=O)c1cccc(-c2ccc3c(c2)C(=O)N(C)C[C@@H]2CNC[C@@H]32)c1` (relative stereo) [Example 187, Trans-8-(3-acetylphenyl)-5-methyl-1,2,3,3a,4,5-hexahydrobenzo[e]pyrrolo[3,4-c]azepin-6(10bH)-one], the values for the EC50 at 5HT2B receptors (setting [2]) and at 5HT2C receptors (setting [3]) were greater than 10 µM and 3 nM, respectively. In addition, the results for the Emax entry on 5HT2B receptors (setting [1]) and at 5HT2C receptors (read-out: Emax) were “inactive” and greater than 120%, respectively.

Turning to `C[C@@H](Cc1ccccc1)Oc1ccc2c(c1)C(=O)NC[C@@H]1CNC[C@@H]21` (mixture of isomers) [Example 149, Trans-8-((S)-1-phenylpropan-2-yloxy)-1,2,3,3a,4,5-hexahydrobenzo[e]pyrrolo[3,4-c]azepin-6(10bH)-one], the 50% effective concentration (EC50) was greater than 10 µM on 5HT2B receptors (setting [2]) and 4 nM on 5HT2C receptors (setting [3]). Besides, the Emax entry was “inactive” on 5HT2B receptors (setting [1]) and 120% on 5HT2C receptors (read-out: Emax).

Regarding `CN1C[C@@H]2CNC(=O)c3cc(OCC4CC4)ccc3[C@H]2C1` [Example 277, (3aS,10bS)-8-(Cyclopropylmethoxy)-2-methyl-1,2,3,3a,4,5-hexahydrobenzo[e]pyrrolo[3,4-c]azepin-6(10bH)-one], the Emax entry is “inactive” on 5HT2B receptors (setting [1]) and 100% at 5HT2C receptors. Also, the EC50 is greater than 10 µM on 5HT2B receptors (EC50, 5-HT2B agonist activity) and 10 nM at 5HT2C receptors (EC50, 5-HT2C agonist activity).

Take `c1cncc(-c2cccc3c2OCC[C@H]2CNC[C@H]32)c1` (relative stereo) [Example 368, Trans-7-(pyridin-3-yl)-2,3,3a,4,5,10b-hexahydro-1H-[1]benzoxepino[4,5-c]pyrrole]: the maximum response (Emax) at 5HT2B receptors (CHO-K1) is 20%; on 5HT2C receptors it was 90%. The concentration giving a half-maximal response (EC50) came out at 1 µM at 5HT2B receptors (EC50, 5-HT2B agonist activity) and 10 nM at 5HT2C receptors (EC50, 5-HT2C agonist activity).

Take `CN1C[C@@H]2CNC(=O)c3cc(OCc4cccc(F)c4F)ccc3[C@H]2C1` [Example 212, (3aS,10bS)-8-(2,3-Difluorobenzyloxy)-2-methyl-1,2,3,3a,4,5-hexahydrobenzo[e]pyrrolo[3,4-c]azepin-6(10bH)-one]: the concentration for a half-maximal effect (EC50) at 5HT2B receptors (setting [2]) was greater than 10 µM; at 5HT2C receptors (setting [3]) it was 0.9 nM. Moreover, the Emax entry on 5HT2B receptors (setting [1]) was “inactive”; on 5HT2C receptors (read-out: Emax), greater than 120%.

As for `O=C1CCc2ccc(-c3ccc4c(c3)C(=O)NC[C@@H]3CNC[C@@H]43)cc21` (relative stereo) [Example 247, Trans-8-(3-oxo-2,3-dihydro-1H-inden-5-yl)-1,2,3,3a,4,5-hexahydrobenzo[c]pyrrolo[3,4-e]azepin-6(10bH)-one], the EC50 at 5HT2B receptors (setting [2]) is greater than 10 µM; on 5HT2C receptors (setting [3]), 8 nM. Also, the Emax entry on 5HT2B receptors (setting [1]) is “inactive”; at 5HT2C receptors (read-out: Emax), greater than 120%.

As to `Brc1cccc2c1[C@H]1CNC[C@@H]1CCO2` (relative stereo) [Example 377, Trans-10-bromo-2,3,3a,4,5,10b-hexahydro-1H-[1]benzoxepino[4,5-c]pyrrole], the maximal response (Emax) on 5HT2B receptors (CHO-K1) was determined as 30%; at 5HT2C receptors, 100%. Also, the EC50 on 5HT2B receptors (EC50, 5-HT2B agonist activity) worked out at 0.03 µM; on 5HT2C receptors (EC50, 5-HT2C agonist activity), 200 nM.

On to `FC(F)(F)Oc1ccc2c(c1)[C@H]1CNC[C@@H]1CCO2` (relative stereo) [Example 282, Trans-9-(trifluoromethoxy)-2,3,3a,4,5,10b-hexahydro-1H-[1]benzoxepino[4,5-c]pyrrole], for which the concentration giving a half-maximal response (EC50) amounted to 0.2 µM at 5HT2B receptors (setting [2]) and 900 nM on 5HT2C receptors (setting [3]). Also, the Emax at 5HT2B receptors (CHO-K1) stood at 30%; at 5HT2C receptors, 70%.

Regarding `CN1C[C@@H]2CNC(=O)c3cc(OCc4ccc(F)c(F)c4)ccc3[C@H]2C1` [Example 210, (3aS,10bS)-8-(3,4-Difluorobenzyloxy)-2-methyl-1,2,3,3a,4,5-hexahydrobenzo[e]pyrrolo[3,4-c]azepin-6(10bH)-one], the EC50 is greater than 10 µM at 5HT2B receptors (setting [2]) and 2 nM on 5HT2C receptors (setting [3]). The maximal response (Emax) entry was “inactive” at 5HT2B receptors (setting [1]) and greater than 120% at 5HT2C receptors (read-out: Emax).

Turning to `CC(C)CCOc1ccc2c(c1)C(=O)NC[C@@H]1CN(C)C[C@@H]21` (relative stereo) [Example 171, Trans-8-(isopentyloxy)-2-methyl-1,2,3,3a,4,5-hexahydrobenzo[e]pyrrolo[3,4-c]azepin-6(10bH)-one], the Emax entry at 5HT2B receptors (setting [1]) is “inactive”; at 5HT2C receptors it was greater than 120%. In addition, the EC50 at 5HT2B receptors (EC50, 5-HT2B agonist activity) was greater than 10 µM; on 5HT2C receptors (EC50, 5-HT2C agonist activity), 30 nM.

For `CN1C[C@H]2CCOc3ncccc3[C@@H]2C1` (relative stereo) [Example 268, Trans-2-methyl-2,3,3a,4,5,10b-hexahydro-1H-pyrrolo[3′,4′:4,5]oxepino[2,3-b]pyridine], the concentration for a half-maximal effect (EC50) was greater than 10 µM on 5HT2B receptors (setting [2]) and 7000 nM at 5HT2C receptors (setting [3]). In addition, the maximum response (Emax) entry at 5HT2B receptors (setting [1]) is “inactive”; on 5HT2C receptors it was 70%.

As for `COc1ccc2c(c1)[C@H]1CNC[C@@H]1CCC2=O` [Example 259, (3aR,10bS)-9-Methoxy-2,3,3a,4,5,10b-hexahydrobenzo[3,4]cyclohepta[1,2-c]pyrrol-6(1H)-one], the Emax at 5HT2B receptors (CHO-K1) is 85%; on 5HT2C receptors, greater than 120%. For the same compound, the half-maximal effective concentration (EC50) on 5HT2B receptors (EC50, 5-HT2B agonist activity) was 1 µM; on 5HT2C receptors (EC50, 5-HT2C agonist activity), 60 nM.

On to `COc1ccc(-c2ccc3c(c2)C(=O)NC[C@H]2CN(C)C[C@H]32)c(F)c1` [Example 325, (3aS,10bS)-8-(2-Fluoro-4-methoxyphenyl)-2-methyl-2,3,3a,4,5,10b-hexahydropyrrolo[3,4-d][2]benzazepin-6(1H)-one], for which the 50% effective concentration (EC50) was greater than 10 µM at 5HT2B receptors (setting [2]) and 2 nM on 5HT2C receptors (setting [3]). The maximal effect (Emax) result was “inactive” on 5HT2B receptors (setting [1]) and 90% on 5HT2C receptors (read-out: Emax).

As for `Cc1noc(C)c1-c1ccc2c(c1)C(=O)NC[C@@H]1CNC[C@@H]21` (single isomer, unassigned) [Example 245, Trans-8-(3,5-dimethylisoxazol-4-yl)-1,2,3,3a,4,5-hexahydrobenzo[e]pyrrolo[3,4-c]azepin-6(10bH)-one], the Emax at 5HT2B receptors (CHO-K1) stood at 15%; on 5HT2C receptors it was 100%. Further, the concentration for a half-maximal effect (EC50) turned out to be 2 µM at 5HT2B receptors (EC50, 5-HT2B agonist activity) and 50 nM at 5HT2C receptors (EC50, 5-HT2C agonist activity).

Regarding `CN1C[C@H]2CNC(=O)c3cc(OCc4ccccc4F)ccc3[C@@H]2C1` (relative stereo) [Example 164, Trans-8-(2-fluorobenzyloxy)-2-methyl-1,2,3,3a,4,5-hexahydrobenzo[e]pyrrolo[3,4-c]azepin-6(10bH)-one], the concentration for a half-maximal effect (EC50) was greater than 10 µM on 5HT2B receptors (setting [2]) and 700 nM at 5HT2C receptors (setting [3]). Also, the Emax entry was “inactive” at 5HT2B receptors (setting [1]) and 50% at 5HT2C receptors (read-out: Emax).

Turning to `O=C1NC[C@@H]2CNC[C@H]2c2ccc(-c3cccc(CCO)c3)cc21` (relative stereo) [Example 252, Trans-8-(3-(2-hydroxyethyl)phenyl)-1,2,3,3a,4,5-hexahydrobenzo[c]pyrrolo[3,4-e]azepin-6(10bH)-one], the EC50 at 5HT2B receptors (setting [2]) is greater than 10 µM; on 5HT2C receptors (setting [3]), 0.4 nM. Moreover, the results for the maximum response (Emax) entry at 5HT2B receptors (setting [1]) and at 5HT2C receptors (read-out: Emax) were “inactive” and greater than 120%, respectively.

As to `CN1C[C@H]2CNC(=O)c3cc(CCc4ccccc4)ccc3[C@@H]2C1` (relative stereo) [Example 87, Trans-2-methyl-8-phenethyl-1,2,3,3a,4,5-hexahydrobenzo[e]pyrrolo[3,4-c]azepin-6(10bH)-one], the half-maximal effective concentration (EC50) on 5HT2B receptors (setting [2]) is greater than 10 µM; at 5HT2C receptors (setting [3]), 38 nM. The results for the Emax result on 5HT2B receptors (setting [1]) and at 5HT2C receptors (read-out: Emax) were “inactive” and 90%, respectively.

In the case of `CN1C[C@H]2CNC(=O)c3cc(-c4ccc(F)cc4)ccc3[C@@H]2C1` [Example 116, (3aR,10bR)-8-(4-Fluorophenyl)-2-methyl-1,2,3,3a,4,5-hexahydrobenzo[e]pyrrolo[3,4-c]azepin-6(10bH)-one], the EC50 at 5HT2B receptors (setting [2]) was greater than 10 µM. For the same compound, the results for the Emax result at 5HT2B receptors (setting [1]) and at 5HT2C receptors (read-out: Emax) were “inactive” and 90%, respectively.

(Values after patent US8846951B2 (AbbVie Inc., priority 2009, dated 2014).)
